The results in this text go back to patent publication US20080045537A1, “Chemical Compounds” (priority 2004, published 2008).

pIC50: −log10 of the molar value. Bounds are passed on as bounds.

System in one data set: not listed separately
In words: Compound cytotoxicity in the absence of virus addition (CellTiter-Glo). The data set is classed as cell-based. Particulars: human; non-infected HOS cultures; read-out: Cytotox (pIC50) (converted). Here is the method: Compounds were profiled against two HIV-1 viruses, the M-tropic (CCR5 utilizing) Ba-L strain and the T-tropic (CXCR4 utilizing) IIIB strain. Both viruses were propagated in human peripheral blood lymphocytes. Compounds were tested for there ability to block infection of the HOS cell line (expressing hCXCR4/hCCR5/hCD4/pHIV-LTR-luciferase) by either HIV-1 Ba-L or HIV-1 IIIB. Compound cytotoxicity was also examined in the absence of virus addition.
HOS cells (expressing hCXCR4/hCCR5/hCD4/pHIV-LTR-luciferase) were harvested and diluted in Dulbeccos modified Eagles media supplemented with 2% FCS and non-essential amino acid to a concentration of 60,000 cells/ml. The cells were plated into 96-well plates (100 ul per well) and the plates were placed in a tissue culture incubator (37° C.; 5% CO2/95% air) for a period of 24 h.
Subsequently, 50 ul of the desired drug solution (4 times the final concentration) was added to each well and the plates were returned to the tissue culture incubator (37° C.; 5% CO2/95% air) for 1 h. Following this incubation 50 ul of diluted virus was added to each well (approximately 2 million RLU per well of virus). The plates were returned to the tissue culture incubator (37° C.; 5% CO2/95% air) and were incubated for a further 96 h.
Following this incubation the endpoint for the virally infected cultures was quantified following addition of Steady-Glo Luciferase assay system reagent (Promega, Madison, Wis.). Cell viability or non-infected cultures was measured using a CellTiter-Glo luminescent cell viability assay system (Promega, Madison, Wis.). All luminescent readouts are performed on a Topcount luminescence detector (Packard, Meridien, Conn.).
A general note: Cellular ATP, detected with luciferase, serves as a proxy for viable cell number.
Consider `CC(C)CN1CCN(c2cccc3[nH]c(CN(C)C4CCCc5cccnc54)nc23)CC1` (stereo not drawn) [Example 36, N-methyl-N-({4-[4-(2-methylpropyl)-1-piperazinyl]-1H-benzimidazol-2-yl}methyl)-5,6,7,8-tetrahydro-8-quinolinamine], for which the IC50 at 96 h was greater than 100 µM.

The subject of another data set is HIV-1 IIIB (T-tropic, CXCR4 utilizing). Nature of the data set: HOS HIV-1 infectivity assay. The data set is classed as cell-based. Particulars: Human immunodeficiency virus 1, IIIB; as determined by the infectivity assay; strain not stated in Table 2; read-out: Activity Level. The essentials:
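Cytotoxicity was measured by CellTiter-Glo in virus-free cultures, while antiviral activity used Steady-Glo luciferase after 96 h infection with T-tropic IIIB virus (~2 million RLU/well). Both used HOS hCXCR4/hCCR5/hCD4/pHIV-LTR-luciferase cells in 2% FCS DMEM, with compound added 1 h before virus.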
`CC(C)CN1CCN(c2cccc3[nH]c(CN(C)C4CCCc5cccnc54)nc23)CC1` (stereo not drawn) [Example 36, N-methyl-N-({4-[4-(2-methylpropyl)-1-piperazinyl]-1H-benzimidazol-2-yl}methyl)-5,6,7,8-tetrahydro-8-quinolinamine]: the pIC50 was greater than 7.00. Still for that read-out and setting: next, `CN1CCN(c2cccc3nc(CN(C)C4CCCc5cccnc54)n(C)c23)CC1` (stereo not drawn) [Example 153, N-Methyl-N-{[1-methyl-7-(4-methyl-1-piperazinyl)-1H-benzimidazol-2-yl]methyl}-5,6,7,8-tetrahydro-8-quinolinamine]: greater than 7.00; `CC(C)N1CCN(C(=O)c2cccc3[nH]c(CN(C)C4CCCc5cccnc54)nc23)CC1` (stereo not drawn) [Example 87, N-Methyl-N-[(4-{[4-(1-methylethyl)-1-piperazinyl]carbonyl}-1H-benzimidazol-2-yl)methyl]-5,6,7,8-tetrahydro-8-quinolinamine]: 6.30 to 7.00. On the same count and under the same terms, in the case of `CCn1c(CN(C)[C@H]2CCCc3cccnc32)nc2cccc(N3CCN(C)CC3)c21` [Example 164, (8S)—N-{[1-ethyl-7-(4-methyl-1-piperazinyl)-1H-benzimidazol-2-yl]methyl}-N-methyl-5,6,7,8-tetrahydro-8-quinolinamine] it was greater than 7.00; in that of `CN(C)CCN(C)C(=O)c1ccc2[nH]c(CN(C)C3CCCc4cccnc43)nc2c1` (stereo not drawn) [Example 55, N-[2-(Dimethylamino)ethyl]-N-methyl-2-{[methyl(5,6,7,8-tetrahydro-8-quinolinyl)amino]methyl}-1H-benzimidazole-5-carboxamide], greater than 7.00. As for `CN(Cc1nc2c(C(=O)NCCc3c[nH]c4ccccc34)cccc2[nH]1)C1CCCc2cccnc21` (stereo not drawn) [Example 81, N-[2-(1H-Indol-3-yl)ethyl]-2-{[methyl(5,6,7,8-tetrahydro-8-quinolinyl)amino]methyl}-1H-benzimidazole-4-carboxamide], the pIC50 is 5.00 to 6.30. As to `CN(Cc1nc2c(NC(=O)CN)cccc2[nH]1)C1CCCc2cccnc21` (stereo not drawn) [Example 99, N^1-(2-{[methyl(5,6,7,8-tetrahydro-8-quinolinyl)amino]methyl}-1H-benzimidazol-4-yl)glycinamide], the pIC50 was 6.30 to 7.00. On the same count and under the same terms, next, `CCCN(Cc1nc2cccc(N3CCN4CCC[C@@H]4C3)c2[nH]1)[C@H]1CCCc2cccnc21` [Example 143, (8S)—N-({4-[(8aR)-hexahydropyrrolo[1,2-a]pyrazin-2(1H)-yl]-1H-benzimidazol-2-yl}methyl)-N-propyl-5,6,7,8-tetrahydro-8-quinolinamine]: greater than 7.00; `CN(Cc1nc2c(NC(=O)[C@@H]3CCCN3C)cccc2[nH]1)C1CCCc2cccnc21` (stereo partly drawn) [Example 104, 1-Methyl-N-(2-{[methyl(5,6,7,8-tetrahydro-8-quinolinyl)amino]methyl}-1H-benzimidazol-4-yl)-L-prolinamide]: 6.30 to 7.00; `CN(Cc1nc2c(C(=O)NCCc3ccncc3)cccc2[nH]1)C1CCCc2cccnc21` (stereo not drawn) [Example 71, 2-{[Methyl(5,6,7,8-tetrahydro-8-quinolinyl)amino]methyl}-N-[2-(4-pyridinyl)ethyl]-1H-benzimidazole-4-carboxamide]: 5.00 to 6.30. Still for that read-out and setting: in the case of `CN(Cc1nc2c(C(=O)NCc3nc4ccccc4[nH]3)cccc2[nH]1)C1CCCc2cccnc21` (stereo not drawn) [Example 75, N-(1H-Benzimidazol-2-ylmethyl)-2-{[methyl(5,6,7,8-tetrahydro-8-quinolinyl)amino]methyl}-1H-benzimidazole-4-carboxamide] it was greater than 7.00; in that of `CN1CCN(c2cccc3nc(CN(C)[C@@H]4CCCc5cccnc54)n(C)c23)CC1` [Example 161, (8R)—N-Methyl-N-{[1-methyl-7-(4-methyl-1-piperazinyl)-1H-benzimidazol-2-yl]methyl}-5,6,7,8-tetrahydro-8-quinolinamine], greater than 7.00; in that of `CCN(Cc1nc2cccc(N3CCN(C)CC3)c2[nH]1)[C@@H]1CCCc2cccnc21` [Example 134, (8R)—N-Ethyl-N-{[4-(4-methyl-1-piperazinyl)-1H-benzimidazol-2-yl]methyl}-5,6,7,8-tetrahydro-8-quinolinamine], greater than 7.00. Still for that read-out and setting: next, `CN(Cc1nc2cccc(N3CCNCC3)c2n1C)[C@H]1CCCc2cccnc21` [Example 159, (8S)—N-methyl-N-{[1-methyl-7-(1-piperazinyl)-1H-benzimidazol-2-yl]methyl}-5,6,7,8-tetrahydro-8-quinolinamine]: greater than 7.00; `CN1C[C@H]2C[C@H](C1)CN(c1cccc3nc(CN(C)[C@H]4CCCc5cccnc54)[nH]c13)C2` [Example 144, (8S)—N-methyl-N-({4-[(1R,5R)-7-methyl-3,7-diazabicyclo[3.3.1]non-3-yl]-1H-benzimidazol-2-yl}methyl)-5,6,7,8-tetrahydro-8-quinolinamine]: greater than 7.00. With `CN(Cc1nc2cccc(C(=O)N3CCN(Cc4ccccc4)CC3)c2[nH]1)C1CCCc2cccnc21` (stereo not drawn) [Example 62, N-Methyl-N-[(4-{[4-(phenylmethyl)-1-piperazinyl]carbonyl}-1H-benzimidazol-2-yl)methyl]-5,6,7,8-tetrahydro-8-quinolinamine], the pIC50 is 5.00 to 6.30.

The same data set, now with this note: Human immunodeficiency virus 1; HIV-1 IIIB, HOS cells, 96 h, luciferase readout; read-out: HOS (3B).
As to `CC(C)CN1CCN(c2cccc3[nH]c(CN(C)C4CCCc5cccnc54)nc23)CC1` (stereo not drawn) [Example 36, N-methyl-N-({4-[4-(2-methylpropyl)-1-piperazinyl]-1H-benzimidazol-2-yl}methyl)-5,6,7,8-tetrahydro-8-quinolinamine], the pIC50 is 7.30.
